Consider six compounds from ChEMBL document CHEMBL1124638, “2,4-Diamino-5-benzylpyrimidines and analogues as antibacterial agents. 10. 2,4-Diamino-5-(6-quinolylmethyl)- and -[(tetrahydro-6-quinolyl)methyl]pyrimidine derivatives. Further specificity studies” (J Med Chem, 1989).

The subject of assay [1] is Bordetella bronchiseptica. The assay can be described thus: Comparative in vitro antibacterial activity with trimethoprim against Bordetella bronchiseptica CN385. Format: functional.
The subject of the next assay is Citrobacter freundii. The assay can be described thus: Comparative in vitro antibacterial activity with trimethoprim against Citrobacter freundii 2200/77. The class given is functional.
Assay [2] addresses T1, Dihydrofolate reductase (Rattus norvegicus, UniProt Q920D2).
T1 sequence (Q920D2 whole entry): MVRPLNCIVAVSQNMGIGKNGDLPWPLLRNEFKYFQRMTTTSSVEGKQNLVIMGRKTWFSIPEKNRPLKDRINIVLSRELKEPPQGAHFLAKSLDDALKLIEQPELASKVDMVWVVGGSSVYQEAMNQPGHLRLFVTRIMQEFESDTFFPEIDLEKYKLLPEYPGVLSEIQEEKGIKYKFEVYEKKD
As to the kind of experiment: Inhibitory activity against dihydrofolate reductase in rat liver. The settings on record: read-out: I50.

For assay [3], the target named is Dihydrofolate reductase (Neisseria gonorrhoeae, UniProt P04174). As to the kind of experiment: Inhibitory activity against Dihydrofolate reductase in Neisseria gonorrhoeae. The settings on record: read-out: I50.
Dihydrofolate reductase (Neisseria gonorrhoeae, UniProt P04174), sequence (P04174 whole entry): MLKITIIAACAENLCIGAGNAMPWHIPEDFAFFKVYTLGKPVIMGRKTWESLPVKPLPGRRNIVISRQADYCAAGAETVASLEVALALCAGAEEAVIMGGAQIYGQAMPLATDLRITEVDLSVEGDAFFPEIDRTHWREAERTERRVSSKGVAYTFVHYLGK
The subject of a further assay is Escherichia coli. As to the kind of experiment: Comparative in vitro antibacterial activity with trimethoprim against Escherichia coli CN314. Format: functional.
Another assay deals with Klebsiella aerogenes. The assay can be described thus: Comparative in vitro antibacterial activity with trimethoprim against Enterobacter aerogenes 2200/86. The class given is functional.
For assay [4], the system named is Mycolicibacterium smegmatis. The assay can be described thus: Comparative in vitro antibacterial activity with trimethoprim against Mycobacterium smegmatis S 3254. Format: functional.
The test system of the next assay is Proteus mirabilis. As to the kind of experiment: Comparative in vitro antibacterial activity with trimethoprim against Proteus mirabilis S2409. The class given is functional.
The next assay has as its system Proteus vulgaris. As to the kind of experiment: Comparative in vitro antibacterial activity with trimethoprim against Proteus vulgaris CN329. The class given is functional.
Assay [5] is described as follows: Comparative in vitro antibacterial activity with trimethoprim against Salmonella typhi CN512. The class given is functional, salmonella typhosa.
For another assay, the system named is Shigella flexneri. The assay can be described thus: Comparative in vitro antibacterial activity with trimethoprim against Shigella flexneri CN6007. The class given is functional.
The subject of another assay is Serratia marcescens. As to the kind of experiment: Comparative in vitro antibacterial activity with trimethoprim against Serratia marcescens CN2398. Format: functional.
The subject of the next assay is Salmonella typhimurium. As to the kind of experiment: Comparative in vitro antibacterial activity with trimethoprim against Salmonella Typhimurium S 8587. The class given is functional, Salmonella enterica subsp. enterica serovar Typhimurium. The settings on record: Salmonella enterica.
Another assay relates to Streptococcus pyogenes. As to the kind of experiment: Comparative in vitro antibacterial activity of compound with trimethoprim against Streptococcus pyogenes CN10. Format: functional.
A further assay concerns Staphylococcus aureus. The assay can be described thus: Comparative in vitro antibacterial activity with trimethoprim against Staphylococcus aureus CN491. The class given is functional.
The subject of a further assay is Enterococcus faecalis. The assay can be described thus: Comparative in vitro antibacterial activity with trimethoprim against Streptococcus faecalis CN478. Format: functional.
For another assay, the system named is Streptococcus agalactiae. As to the kind of experiment: Comparative in vitro antibacterial activity with trimethoprim against Streptococcus agalactiae CN1143. Format: functional.
In another assay the test system is Vibrio cholerae. As to the kind of experiment: Comparative in vitro antibacterial activity with trimethoprim against Vibrio cholerae ATCC 14035. The class given is functional.
In the next assay the test system is Pasteurella multocida. The assay can be described thus: Comparative in vitro antibacterial activity with trimethoprim against Pasteurella multocida ATCC 6587. Format: functional.
The test system of another assay is Klebsiella pneumoniae. The assay can be described thus: Comparative in vitro antibacterial activity with trimethoprim against Klebsiella pneumoniae CN3632. Format: functional.

≈ marks a conversion by molar mass, not a printed value. Bounds are passed on as bounds.

As for `COc1cc(Cc2cnc(N)nc2N)cc2c1N(CCOC(C)=O)CCC2C` (stereo not given), the MIC in assay [1] stood at 3 µg/mL (≈ 7.78 µM); against Citrobacter freundii it was 10 µg/mL (≈ 25.9 µM); against Escherichia coli, 30 µg/mL (≈ 77.8 µM); against Klebsiella aerogenes it was 30 µg/mL (≈ 77.8 µM); in [4], 3 µg/mL (≈ 7.78 µM); in the assay on Proteus mirabilis, 30 µg/mL (≈ 77.8 µM). Further, the MIC against Proteus vulgaris is 10 µg/mL (≈ 25.9 µM); in assay [5], 30 µg/mL (≈ 77.8 µM); with Shigella flexneri, 30 µg/mL (≈ 77.8 µM); in the assay with Serratia marcescens it was greater than 10 µg/mL; with Salmonella typhimurium, 30 µg/mL (≈ 77.8 µM); in the assay with Streptococcus pyogenes, 10 µg/mL (≈ 25.9 µM). In addition, the MIC against Staphylococcus aureus was found to be 3 µg/mL (≈ 7.78 µM); against Enterococcus faecalis it was 1 µg/mL (≈ 2.59 µM); against Streptococcus agalactiae, 1 µg/mL (≈ 2.59 µM); in the assay on Vibrio cholerae, 10 µg/mL (≈ 25.9 µM); in the assay with Pasteurella multocida, 10 µg/mL (≈ 25.9 µM); in the assay on Klebsiella pneumoniae, 10 µg/mL (≈ 25.9 µM). Also, the IC50 on Dihydrofolate reductase [2] stood at 190 µM; at Dihydrofolate reductase [3], 0.63 µM.

Take `CCN1CC(CO)Cc2cc(Cc3cnc(N)nc3N)cc(OC)c21` (stereo not given): the MIC in [1] was 30 µg/mL (≈ 87.4 µM); in the assay with Citrobacter freundii, 100 µg/mL (≈ 291 µM); with Escherichia coli, 100 µg/mL (≈ 291 µM); in the assay on Klebsiella aerogenes, 10 µg/mL (≈ 29.1 µM); in [4], 100 µg/mL (≈ 291 µM); in the assay on Proteus mirabilis, greater than 30 µg/mL. Moreover, the MIC against Proteus vulgaris was greater than 100 µg/mL; in assay [5], 100 µg/mL (≈ 291 µM); against Shigella flexneri it was 100 µg/mL (≈ 291 µM); in the assay on Serratia marcescens, greater than 10 µg/mL; with Salmonella typhimurium it was 30 µg/mL (≈ 87.4 µM); in the assay on Streptococcus pyogenes, 10 µg/mL (≈ 29.1 µM). The minimum inhibitory concentration (MIC) turned out to be 10 µg/mL (≈ 29.1 µM) with Staphylococcus aureus; 3 µg/mL (≈ 8.74 µM) with Enterococcus faecalis; 30 µg/mL (≈ 87.4 µM) against Streptococcus agalactiae; 100 µg/mL (≈ 291 µM) with Vibrio cholerae; 100 µg/mL (≈ 291 µM) against Pasteurella multocida; 30 µg/mL (≈ 87.4 µM) in the assay with Klebsiella pneumoniae. For the same compound, the results for the IC50 at Dihydrofolate reductase [2] and on Dihydrofolate reductase [3] were 440 µM and 2.6 µM, respectively.

In the case of `COCCN1CCC(C)c2cc(Cc3cnc(N)nc3N)cc(OC)c21` (stereo not given), the MIC was 100 µg/mL (≈ 280 µM) in assay [1]; 100 µg/mL (≈ 280 µM) against Citrobacter freundii; 30 µg/mL (≈ 83.9 µM) against Escherichia coli; 30 µg/mL (≈ 83.9 µM) against Klebsiella aerogenes; 10 µg/mL (≈ 28 µM) in assay [4]; greater than 100 µg/mL with Proteus vulgaris. Moreover, the minimal inhibitory concentration (MIC) in assay [5] is 30 µg/mL (≈ 83.9 µM); in the assay on Shigella flexneri, 100 µg/mL (≈ 280 µM); against Serratia marcescens it was greater than 10 µg/mL; with Salmonella typhimurium, 100 µg/mL (≈ 280 µM); with Streptococcus pyogenes, 1 µg/mL (≈ 2.8 µM); in the assay on Staphylococcus aureus it was 3 µg/mL (≈ 8.39 µM). The minimal inhibitory concentration (MIC) against Enterococcus faecalis is 0.3 µg/mL (≈ 0.839 µM); in the assay with Streptococcus agalactiae, 3 µg/mL (≈ 8.39 µM); against Vibrio cholerae, 100 µg/mL (≈ 280 µM); against Pasteurella multocida it was 30 µg/mL (≈ 83.9 µM); against Klebsiella pneumoniae it was 30 µg/mL (≈ 83.9 µM). Further, the IC50 on Dihydrofolate reductase [2] is 260 µM; at Dihydrofolate reductase [3], 1.4 µM.

For `CCN1CCC(C)c2cc(Cc3cnc(N)nc3N)ccc21` (stereo not given), the MIC in assay [1] was 100 µg/mL (≈ 336 µM); in the assay on Citrobacter freundii it was 100 µg/mL (≈ 336 µM); against Escherichia coli, 100 µg/mL (≈ 336 µM); against Klebsiella aerogenes, 100 µg/mL (≈ 336 µM); in assay [4] it was 10 µg/mL (≈ 33.6 µM); against Proteus mirabilis, 30 µg/mL (≈ 101 µM). Besides, the MIC is 100 µg/mL (≈ 336 µM) in the assay on Proteus vulgaris; 100 µg/mL (≈ 336 µM) in assay [5]; 100 µg/mL (≈ 336 µM) in the assay with Shigella flexneri; greater than 30 µg/mL in the assay on Serratia marcescens; 100 µg/mL (≈ 336 µM) with Salmonella typhimurium; 3 µg/mL (≈ 10.1 µM) against Staphylococcus aureus. The MIC against Enterococcus faecalis was determined as 3 µg/mL (≈ 10.1 µM); against Streptococcus agalactiae, 3 µg/mL (≈ 10.1 µM); in the assay on Vibrio cholerae it was 10 µg/mL (≈ 33.6 µM); in the assay with Pasteurella multocida, 30 µg/mL (≈ 101 µM); against Klebsiella pneumoniae, 100 µg/mL (≈ 336 µM). Besides, the IC50 is 38 µM on Dihydrofolate reductase [2] and 0.69 µM on Dihydrofolate reductase [3].

On to `COc1cc(Cc2cnc(N)nc2N)cc2c1NCC(COC(C)=O)C2` (stereo not given), for which the minimum inhibitory concentration (MIC) was found to be 10 µg/mL (≈ 28 µM) in [1]; 30 µg/mL (≈ 83.9 µM) in the assay with Citrobacter freundii; 30 µg/mL (≈ 83.9 µM) against Escherichia coli; 30 µg/mL (≈ 83.9 µM) with Klebsiella aerogenes; 30 µg/mL (≈ 83.9 µM) in assay [4]; 30 µg/mL (≈ 83.9 µM) in the assay with Proteus mirabilis. The MIC with Proteus vulgaris was 30 µg/mL (≈ 83.9 µM); in [5], 30 µg/mL (≈ 83.9 µM); in the assay with Shigella flexneri it was 30 µg/mL (≈ 83.9 µM); in the assay on Serratia marcescens, greater than 10 µg/mL; against Salmonella typhimurium, 30 µg/mL (≈ 83.9 µM); against Streptococcus pyogenes it was 3 µg/mL (≈ 8.39 µM). Further, the MIC against Staphylococcus aureus was found to be 10 µg/mL (≈ 28 µM); with Enterococcus faecalis, 3 µg/mL (≈ 8.39 µM); in the assay with Streptococcus agalactiae it was 10 µg/mL (≈ 28 µM); in the assay with Vibrio cholerae it was 10 µg/mL (≈ 28 µM); in the assay with Pasteurella multocida it was 30 µg/mL (≈ 83.9 µM); with Klebsiella pneumoniae it was 100 µg/mL (≈ 280 µM). Moreover, the IC50 was 61 µM on Dihydrofolate reductase [2] and 0.16 µM on Dihydrofolate reductase [3].

`CCOC(=O)C1CNc2c(OC)cc(Cc3cnc(N)nc3N)c(OC)c2C1` (stereo not given): the IC50 stood at 142 µM on Dihydrofolate reductase [2] and 1.9 µM at Dihydrofolate reductase [3].
